Laboratory results taken from ChEMBL document CHEMBL4680185, “Discovery of novel cyclin-dependent kinase (CDK) and histone deacetylase (HDAC) dual inhibitors with potent in vitro and in vivo anticancer activity” (Eur J Med Chem, 2020).
Active and inactive are the calls of the source. The rule behind the calls is not given here.

What was measured:
[1] = biological target: Histone deacetylase (Homo sapiens) (UniProt Q13547+O15379+Q9UBN7+Q92769+Q9UQL6+Q8WUI4+Q9BY41+Q96DB2+P56524+Q9UKV0+Q969S8); test: Inhibition of HDAC in human A375 cells assessed as increase in acetylation of H3K9 at 1 uM measured after 12 hr by DAPI staining based immunofluorescence analysis; format: cell-based; conditions: A-375
[2] = biological target: Histone deacetylase 1 (Homo sapiens, UniProt Q13547); test: Inhibition of human recombinant HDAC1 preincubated for 10 mins followed by addition of substrate fluor De Lys SIRT1 deacetylase measured after 30 mins by fluorescent plate reader analysis
[3] = Cytotoxicity against mouse NIH/3T3 cells incubated for 72 hrs by CCK-8 assay; format: cell-based; conditions: NIH3T3, 72 h
[4] = test system: HCT-116; test: cells; format: functional; conditions: Homo sapiens, time 72 hrs, read-out: GI
[5] = test system: A-375; test: cells; format: functional, cell-based; conditions: Homo sapiens, A-375, 72 h
Description: Antiproliferative activity against human A375 cells assessed as inhibition of cell growth incubated for 72 hrs by CCK-8 assay

[6] = test system: NCI-H460; test: Induction of apoptosis in human H460 cells assessed as number of apoptotic cells at 0.5 to 2 uM incubated for 48 hrs by annexin V-FITC/PI based flow cytometric analysis; format: functional, cell-based; conditions: dose 0.5-2 µM
[7] = test system: HeLa; test: cells; format: functional, cell-based; conditions: Homo sapiens, 72 h
Description: Antiproliferative activity against human Hela cells assessed as inhibition of cell growth incubated for 72 hrs by CCK-8 assay

[8] = test system: HCT-116; test: Antitumor activity against human HCT116 cells xenografted in BALB/C nude mouse assessed reduction in tumor growth at 25 mg/kg, ip once daily for 21 days relative to control; format: functional; conditions: HCT-116, ip, 504 h, time 21 day, read-out: TGI
[9] = Tmax in ICR mouse at 20 mg/kg, ip by LC-MS/MS analysis; format: ADME, organism-based; conditions: in vivo
[10] = biological target: Cyclin-dependent kinase 7/ cyclin H (Homo sapiens, UniProt P50613); test: Inhibition of recombinant human full length CDK7/cyclin H1 expressed in Sf9 cells incubated for 10 mins by ADP-Glo reagent assay
[11] = test system: NCI-H460; test: cells; format: functional, cell-based; conditions: Homo sapiens, NCI-H460, 72 h
Description: Antiproliferative activity against human H460 cells assessed as inhibition of cell growth incubated for 72 hrs by CCK-8 assay

[12] = biological target: CDK1/Cyclin A (Homo sapiens, UniProt P06493); test: Inhibition of recombinant human full length CDK1/cyclin A2 expressed in Sf9 cells incubated for 10 mins by ADP-Glo reagent assay
[13] = Toxicity in BALB/C nude mouse xenografted with HCT116 cells assessed as effect on body weight at 12.5 to 25 mg/kg, ip once daily for 21 days; format: organism-based; conditions: in vivo, 504 h, dose 12.5-25 mg/kg, time 21 day
[14] = biological target: Histone deacetylase 2 (Homo sapiens, UniProt Q92769); test: Inhibition of human recombinant HDAC2 preincubated for 10 mins followed by addition of substrate fluor De Lys green measured after 30 mins by fluorescent plate reader analysis
[15] = biological target: Cyclin-dependent kinase 2 (Homo sapiens) (UniProt P24941); test: Inhibition of CDK2 in human A375 cells at 1 uM measured after 12 hr by DAPI staining based immunofluorescence analysis; format: cell-based; conditions: A-375
[16] = test system: A-375; test: Cell cycle arrest in human A375 cells assessed as increase in number of cells at G2/M phase at 2 uM incubated for 24 hrs by propidium iodide staining based flow cytometry (reference value: 1.13%); format: functional
[17] = test system: HeLa; test: Cell cycle arrest in human HeLa cells assessed as increase in number of cells at G2/M phase at 0.5 to 2 uM incubated for 24 hrs by propidium iodide staining based flow cytometry; format: functional; conditions: dose 0.5-2 µM
[18] = AUC (0 to infinity) in ICR mouse at 20 mg/kg, ip by LC-MS/MS analysis; format: ADME, organism-based; set-up: time infinity, route intraperitoneal, dose 20 mg/kg; conditions: in vivo
[19] = Biovailability in ICR mouse at 20 mg/kg, ip; format: ADME, organism-based; conditions: in vivo
[20] = test system: HCT-116; test: Antitumor activity against human HCT116 cells xenografted in BALB/C nude mouse assessed reduction in tumor growth at 12.5 mg/kg, ip once daily for 21 days relative to control; format: functional; conditions: HCT-116, ip, 504 h, time 21 day, read-out: TGI
[21] = biological target: Histone deacetylase 3/NCoR1 (Homo sapiens, UniProt O15379); test: Inhibition of human recombinant HDAC3/NCOR1 complex preincubated for 10 mins followed by addition of substrate fluor De Lys SIRT1 deacetylase measured after 30 mins by fluorescent plate reader analysis; format: protein-complex assay
[22] = test system: NCI-H460; test: Cell cycle arrest in human H460 cells assessed as increase in number of cells at G2/M phase at 0.5 to 2 uM incubated for 24 hrs by propidium iodide staining based flow cytometry; format: functional; conditions: dose 0.5-2 µM

| Structure (SMILES) | inhibition [1] | IC50 [2] [µM] | IC50 [3] [µM] | inhibition of growth at 8 µM [4] [%] | IC50 [5] [µM] | Activity [6] | IC50 [7] [µM] | Tmax [9] [h] | IC50 [10] [µM] | IC50 [11] [µM] | IC50 [12] [µM] | IC50 [14] [µM] | inhibition [15] | Activity [16] [%] | Activity [17] | AUC [18] [ng·h/mL] | bioavailability [19] [%] | IC50 [21] [µM] | Activity [22] | other results |
| --- | --- | --- | --- | --- | --- | --- | --- | --- | --- | --- | --- | --- | --- | --- | --- | --- | --- | --- | --- | --- |
| Nc1ccccc1NC(=O)c1ccc(CNC(=O)c2n[nH]cc2NC(=O)c2c(Cl)cccc2Cl)cc1 | Active | 0.0064 | 4.47 | 73.8 | 1.2 | Active | 1.83 | 2 | > 1 | 4.19 | 0.00863 | 0.00025 | Active | 57.74 | Active | 30700 | 63.6 | 0.045 | Active | inhibition in vivo at 25 mg/kg [8]: 51%; Activity [13]: Non-Toxic; inhibition in vivo at 12.5 mg/kg [20]: 37% |
| Nc1ccccc1NC(=O)Cc1ccc(NC(=O)c2n[nH]cc2NC(=O)c2c(Cl)cccc2Cl)cc1 | Active | 0.24 | 4.64 | 78 | 1.6 | Active | 3.15 | 1 | > 1 | 2.63 | 0.0126 | 0.00024 | Active | 66.48 | Active | 7200 | 27.8 | > 1 | Active |  |
